Legend:
Assay type in all cases: cell-based
[1] = tested on: PLC/PRF/5 (human liver cancer); experiment: cells; details: for IC50: Homo sapiens, PLC-PRF-5, 72 h with compound, SRB, n/a = non-active compound, read-out: PLC/PRF/5 IC50; for PLC/PRF/5 SI: selectivity coefficient vs normal BALB/3T3 cells
A375 (human melanoma) = experiment: In vitro cytotoxicity, SRB assay, A375; details: for IC50: Homo sapiens, A-375, 72 h with compound, SRB, n/a = non-active compound, read-out: A375 IC50; for A375 SI: selectivity coefficient vs normal BALB/3T3 cells
[2] = tested on: NCI-H23 (human lung cancer); experiment: In vitro cytotoxicity, SRB assay, NCI-H23; details: for IC50: Homo sapiens, NCI-H23, 72 h with compound, SRB, n/a = non-active compound, read-out: NCI-H23 IC50; for NCI-H23 SI: selectivity coefficient vs normal BALB/3T3 cells
[3] = tested on: SNU-16 (human gastric cancer); experiment: cells; details: for IC50: Homo sapiens, SNU-16, 72 h with compound, MTT, n/a = non-active compound, read-out: SNU-16 IC50; for SNU-16 SI: selectivity coefficient vs normal BALB/3T3 cells
[4] = tested on: A2780 (human ovarian cancer); experiment: In vitro cytotoxicity, SRB assay, A2780; details: for IC50: Homo sapiens, A2780, 72 h with compound, SRB, n/a = non-active compound, read-out: A2780 IC50; for A2780 SI: selectivity coefficient vs normal BALB/3T3 cells
[5] = tested on: MIA PaCa-2 (human pancreatic cancer); experiment: cells; details: for IC50: Homo sapiens, MIA PaCa-2, 72 h with compound, SRB, n/a = non-active compound, read-out: MIA PaCa-2 IC50; for MIA PaCa-2 SI: selectivity coefficient vs normal BALB/3T3 cells
[6] = tested on: PFSK-1 (malignant primitive neuroectodermal tumour); experiment: In vitro cytotoxicity, SRB assay, PFSK-1; details: for IC50: Homo sapiens, PFSK-1, 72 h with compound, SRB, n/a = non-active compound, read-out: PFSK-1 IC50; for PFSK-1 SI: selectivity coefficient vs normal BALB/3T3 cells
[7] = tested on: KG-1 (human acute myeloid leukaemia); experiment: In vitro cytotoxicity, MTT assay, KG-1; details: for IC50: Homo sapiens, 72 h with compound, MTT, n/a = non-active compound; for KG-1 SI: selectivity coefficient vs normal BALB/3T3 cells
[8] = tested on: BALB/3T3 (normal mouse fibroblasts); experiment: In vitro cytotoxicity, SRB assay, normal BALB/3T3 fibroblasts; details: Mus musculus, BALB/3T3; normal cells; 72 h with compound, SRB; n/a = non-active compound; read-out: BALB/3T3 IC50
Hs294T (human melanoma) = experiment: cells; details: for IC50: Homo sapiens, Hs 294T, 72 h with compound, SRB, n/a = non-active compound, read-out: Hs294T IC50; for Hs294T SI: selectivity coefficient vs normal BALB/3T3 cells
[9] = tested on: A2780Cis (cisplatin-resistant human ovarian cancer); experiment: In vitro cytotoxicity, SRB assay, A2780Cis; details: for IC50: Homo sapiens, A2780cis, 72 h, read-out: A2780Cis IC50 (nM)

Row | SMILES | IC50 [1] | PLC/PRF/5 SI [1] | IC50 (A375 (human melanoma)) | A375 SI (A375 (human melanoma)) | IC50 [2] | NCI-H23 SI [2] | IC50 [3] | SNU-16 SI [3] | IC50 [4] | A2780 SI [4] | IC50 [5] | MIA PaCa-2 SI [5] | IC50 [6] | PFSK-1 SI [6] | IC50 [7] | KG-1 SI [7] | IC50 [8] | IC50 (Hs294T (human melanoma)) | Hs294T SI (Hs294T (human melanoma)) | A2780Cis RI [9] | further results
1 | CC[C@@H](C(=O)[C@@H](C)[C@@H](O)[C@H](C)[C@@H]1O[C@@H]([C@@H](CC)C(=O)O)CC[C@@H]1C)[C@H]1O[C@]2(C=C[C@@H](NC(=O)NCCc3ccccc3)[C@]3(CC[C@@](C)([C@H]4CC[C@](O)(CC)[C@H](C)O4)O3)O2)[C@H](C)C[C@@H]1C [FLC-00362-1] | 32 nM | 4.8 | 281 nM | 0.5 | 62.4 nM | 2.5 | 17 nM | 9.0 | 11.3 nM | 13.6 | 73.8 nM | 2.1 | 38.4 nM | 4.0 | 36.8 nM | 4.2 | 153 nM | 473 nM | 0.3 | 1.1 | A2780Cis SI [9]: 12.9; IC50 [9]: 11.9 nM
2 | CCCNC(=S)N[C@@H]1C=C[C@]2(O[C@H]([C@@H](CC)C(=O)[C@@H](C)[C@@H](O)[C@H](C)[C@@H]3O[C@@H]([C@@H](CC)C(=O)O)CC[C@@H]3C)[C@@H](C)C[C@H]2C)O[C@@]12CC[C@@](C)([C@H]1CC[C@](O)(CC)[C@H](C)O1)O2 [FLC-00349-1] | 24.1 nM | 2.8 | 113 nM | 0.6 | 75.2 nM | 0.9 | 20.7 nM | 3.3 | 4.5 nM | 15.0 | 66.3 nM | 1.0 | 27.6 nM | 2.4 | 24.7 nM | 2.7 | 67.5 nM | 108 nM | 0.6 | 1.0 | A2780Cis SI [9]: 14.8; IC50 [9]: 4.56 nM
3 | CC[C@@H](C(=O)[C@@H](C)[C@@H](O)[C@H](C)[C@@H]1O[C@@H]([C@@H](CC)C(=O)O)CC[C@@H]1C)[C@H]1O[C@]2(C=C[C@@H](NC(=O)NCc3ccc(F)cc3)[C@]3(CC[C@@](C)([C@H]4CC[C@](O)(CC)[C@H](C)O4)O3)O2)[C@H](C)C[C@@H]1C [FLC-00383-1] | 3.35 nM | 51.7 | 205 nM | 0.8 | 24.6 nM | 7.0 | 20.3 nM | 8.6 | 6.38 nM | 27.2 | 47.7 nM | 3.6 | 26 nM | 6.7 | 30.6 nM | 5.7 | 173 nM | 244 nM | 0.7 | 0.7 | A2780Cis SI [9]: 39.0; IC50 [9]: 4.45 nM
4 | CCCCNC(=S)N[C@@H]1C=C[C@]2(O[C@H]([C@@H](CC)C(=O)[C@@H](C)[C@@H](O)[C@H](C)[C@@H]3O[C@@H]([C@@H](CC)C(=O)O)CC[C@@H]3C)[C@@H](C)C[C@H]2C)O[C@@]12CC[C@@](C)([C@H]1CC[C@](O)(CC)[C@H](C)O1)O2 [FLC-00368-1] | 74.2 nM | 1.8 | 89.1 nM | 1.5 | 18.4 nM | 7.1 | 16 nM | 8.2 | 3.54 nM | 37.1 | 88.1 nM | 1.5 | 18.6 nM | 7.0 | 28.2 nM | 4.7 | 131 nM | 152 nM | 0.9 | 0.8 | A2780Cis SI [9]: 44.2; IC50 [9]: 2.97 nM
5 | C=CCNC(=O)N[C@@H]1C=C[C@]2(O[C@H]([C@@H](CC)C(=O)[C@@H](C)[C@@H](O)[C@H](C)[C@@H]3O[C@@H]([C@@H](CC)C(=O)O)CC[C@@H]3C)[C@@H](C)C[C@H]2C)O[C@@]12CC[C@@](C)([C@H]1CC[C@](O)(CC)[C@H](C)O1)O2 [FLC-00353-1] | 31.5 nM | 7.2 | 107 nM | 2.1 | 410 nM | 0.6 | 88.6 nM | 2.6 | 1.14 nM | 199.8 | 28.9 nM | 7.8 | 13.4 nM | 16.9 | 34.3 nM | 6.6 | 227 nM | 612 nM | 0.4 | 1.1 | A2780Cis SI [9]: 180.6; IC50 [9]: 1.26 nM
6 | CC[C@@H](C(=O)[C@@H](C)[C@@H](O)[C@H](C)[C@@H]1O[C@@H]([C@@H](CC)C(=O)O)CC[C@@H]1C)[C@H]1O[C@]2(C=C[C@@H](NC(=S)Nc3cc(C(F)(F)F)cc(C(F)(F)F)c3)[C@]3(CC[C@@](C)([C@H]4CC[C@](O)(CC)[C@H](C)O4)O3)O2)[C@H](C)C[C@@H]1C [FLC-00348-1] | 1150 nM | 2.5 | 2590 nM | 1.1 | 972 nM | 2.9 | 537 nM | 5.3 | 57 nM | 49.6 | 2320 nM | 1.2 | 379 nM | 7.4 | 188 nM | 15.0 | 2830 nM | 3320 nM | 0.9 | 0.8 | A2780Cis SI [9]: 60.6; IC50 [9]: 46.6 nM
7 | CC[C@@H](C(=O)[C@@H](C)[C@@H](O)[C@H](C)[C@@H]1O[C@@H]([C@@H](CC)C(=O)O)CC[C@@H]1C)[C@H]1O[C@]2(C=C[C@@H](NC(=S)NC3CCCCC3)[C@]3(CC[C@@](C)([C@H]4CC[C@](O)(CC)[C@H](C)O4)O3)O2)[C@H](C)C[C@@H]1C [FLC-00377-1] | 18.8 nM | 3.9 | 65.5 nM | 1.1 | 5.7 nM | 12.9 | 51.8 nM | 1.4 | 3.55 nM | 20.6 | 41.6 nM | 1.8 | 7.82 nM | 9.4 | 18.3 nM | 4.0 | 73.3 nM | 94.8 nM | 0.8 | 0.4 | A2780Cis SI [9]: 47.2; IC50 [9]: 1.56 nM
8 | CC[C@@H](C(=O)[C@@H](C)[C@@H](O)[C@H](C)[C@@H]1O[C@@H]([C@@H](CC)C(=O)O)CC[C@@H]1C)[C@H]1O[C@]2(C=C[C@@H](NC(=O)NCCCl)[C@]3(CC[C@@](C)([C@H]4CC[C@](O)(CC)[C@H](C)O4)O3)O2)[C@H](C)C[C@@H]1C [FLC-00338-1 Na] | 61.6 nM | 2.7 | 354 nM | 0.5 | 620 nM | 0.3 | 39.2 nM | 4.2 | 5.4 nM | 30.4 | 58.6 nM | 2.8 | 53.1 nM | 3.1 | 222 nM | 0.7 | 164 nM | 1870 nM | 0.1 | 1.9 | A2780Cis SI [9]: 16.2; IC50 [9]: 10.1 nM

Source: patent publication US20240294541A1, “COMPOUNDS CONSTITUTING C20-MODIFIED SALINOMYCIN DERIVATIVES, A METHOD FOR OBTAINING THE SAME, A COMPOSITION CONTAINING THE SAME AND A USE OF SAID COMPOUNDS” (FILECLO SPOLKA Z OGRANICZONA ODPOWIEDZIALNOSCIA, priority 2021, published 2024)
